How the values were obtained:
MNK2 = biological target: T1, MNK2 (Homo sapiens, UniProt Q9HBH9); test: Kinase inhibition profiling, MNK2 (Test Example 6); type: biochemical; conditions: 100 nM; read-out: inhibitory activity against MNK2
T1 construct: purchased Carna Biosciences Inc., Japan (contract measurement)

MUSK = biological target: T2, MUSK (Homo sapiens, UniProt O15146); test: Kinase inhibition profiling, MUSK (Test Example 6); type: biochemical; parameters: purchased Carna Biosciences Inc., Japan (contract measurement); conditions: 100 nM; read-out: inhibitory activity against MUSK
T2 sequence (O15146 24-869): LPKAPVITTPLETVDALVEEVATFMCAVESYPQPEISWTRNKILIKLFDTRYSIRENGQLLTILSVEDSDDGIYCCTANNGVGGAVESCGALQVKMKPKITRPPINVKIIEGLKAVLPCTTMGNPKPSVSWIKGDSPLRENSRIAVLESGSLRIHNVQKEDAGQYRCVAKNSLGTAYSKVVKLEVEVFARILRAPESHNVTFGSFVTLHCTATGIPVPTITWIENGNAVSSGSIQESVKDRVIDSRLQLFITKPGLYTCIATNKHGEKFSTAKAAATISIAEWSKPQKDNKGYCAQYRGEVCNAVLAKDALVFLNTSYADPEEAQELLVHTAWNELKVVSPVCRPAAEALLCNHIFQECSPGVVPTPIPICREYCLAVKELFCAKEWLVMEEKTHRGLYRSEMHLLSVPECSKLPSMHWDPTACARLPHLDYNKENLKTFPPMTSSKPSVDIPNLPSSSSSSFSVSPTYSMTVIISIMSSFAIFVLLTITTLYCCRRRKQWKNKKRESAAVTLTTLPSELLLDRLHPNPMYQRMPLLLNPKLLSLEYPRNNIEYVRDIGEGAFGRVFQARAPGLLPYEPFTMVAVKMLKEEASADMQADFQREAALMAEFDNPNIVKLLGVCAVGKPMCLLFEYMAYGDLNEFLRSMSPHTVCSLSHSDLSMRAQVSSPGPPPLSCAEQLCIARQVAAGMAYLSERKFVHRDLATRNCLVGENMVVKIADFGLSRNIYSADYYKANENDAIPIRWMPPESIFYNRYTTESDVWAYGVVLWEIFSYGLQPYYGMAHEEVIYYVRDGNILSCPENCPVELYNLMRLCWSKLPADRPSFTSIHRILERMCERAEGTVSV

[1] = Toxicity test in rats, 7-day repeated oral administration (Test Example 5); type: in vivo, SD rats; conditions: 7 days; for Non-toxic dose: oral; for Dose: Bone marrow inhibition / Dose: Exacerbation of common symptoms / Dose: Moribund condition: SD, rat, in vivo, po
Excerpt: Test compounds were each suspended in a 0.5% aqueous methylcellulose solution and repeatedly administered to SD rats (two females and four males in each group) by the oral route at each dose for 7 days.

T1 sequence (Q9HBH9 whole entry): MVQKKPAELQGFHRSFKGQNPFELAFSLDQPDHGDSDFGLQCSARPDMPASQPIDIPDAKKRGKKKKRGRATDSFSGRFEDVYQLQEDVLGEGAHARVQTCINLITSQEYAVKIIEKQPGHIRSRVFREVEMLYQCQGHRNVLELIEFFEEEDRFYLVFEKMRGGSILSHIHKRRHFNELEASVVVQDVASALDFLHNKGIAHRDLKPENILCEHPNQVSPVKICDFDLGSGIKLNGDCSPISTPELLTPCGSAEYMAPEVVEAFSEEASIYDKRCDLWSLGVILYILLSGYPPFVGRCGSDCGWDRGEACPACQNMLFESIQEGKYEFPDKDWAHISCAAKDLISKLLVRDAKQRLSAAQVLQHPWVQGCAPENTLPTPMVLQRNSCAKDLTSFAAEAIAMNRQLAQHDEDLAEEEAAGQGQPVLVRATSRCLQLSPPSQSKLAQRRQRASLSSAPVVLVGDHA

COc1cc(N2CCC(N3CCN(C)CC3)CC2)ccc1Nc1ncnc(Nc2ccccc2S(=O)(=O)C(C)C)n1 [Example 23]
inhibition at 0.1 µM (MNK2): 80%
inhibition at 0.1 µM (MUSK): < 20%
Non-toxic dose ([1]; female SD rats (2 rats)): 10 mg/kg
Dose: Bone marrow inhibition ([1]; female): 100 mg/kg
Dose: Exacerbation of common symptoms ([1]; female): (>300) mg/kg
Dose: Moribund condition ([1]; female): (>300) mg/kg
Non-toxic dose ([1]; male SD rats (4 rats)): 10 mg/kg
Dose: Bone marrow inhibition ([1]; male): 100 mg/kg
Dose: Exacerbation of common symptoms ([1]; male): (>300) mg/kg
Dose: Moribund condition ([1]; male): (>300) mg/kg

Reference: patent publication US20130096100A1, “DI(ARYLAMINO)ARYL COMPOUND” (ASTELLAS PHARMA INC., priority 2007, published 2013)
